The values that follow come from patent US20250339566A1, “INHIBITORS OF FIBROBLAST ACTIVATION PROTEIN” (UNIVERSITEIT ANTWERPEN, priority 2022, published 2025).

Holding throughout (type): biochemical
One test concerns the target T1, Human recombinant PREP (Homo sapiens, UniProt P48147).
T1 construct: made in house; host or cells: E. coli BL21(DE3)
T1 sequence (P48147 1-710): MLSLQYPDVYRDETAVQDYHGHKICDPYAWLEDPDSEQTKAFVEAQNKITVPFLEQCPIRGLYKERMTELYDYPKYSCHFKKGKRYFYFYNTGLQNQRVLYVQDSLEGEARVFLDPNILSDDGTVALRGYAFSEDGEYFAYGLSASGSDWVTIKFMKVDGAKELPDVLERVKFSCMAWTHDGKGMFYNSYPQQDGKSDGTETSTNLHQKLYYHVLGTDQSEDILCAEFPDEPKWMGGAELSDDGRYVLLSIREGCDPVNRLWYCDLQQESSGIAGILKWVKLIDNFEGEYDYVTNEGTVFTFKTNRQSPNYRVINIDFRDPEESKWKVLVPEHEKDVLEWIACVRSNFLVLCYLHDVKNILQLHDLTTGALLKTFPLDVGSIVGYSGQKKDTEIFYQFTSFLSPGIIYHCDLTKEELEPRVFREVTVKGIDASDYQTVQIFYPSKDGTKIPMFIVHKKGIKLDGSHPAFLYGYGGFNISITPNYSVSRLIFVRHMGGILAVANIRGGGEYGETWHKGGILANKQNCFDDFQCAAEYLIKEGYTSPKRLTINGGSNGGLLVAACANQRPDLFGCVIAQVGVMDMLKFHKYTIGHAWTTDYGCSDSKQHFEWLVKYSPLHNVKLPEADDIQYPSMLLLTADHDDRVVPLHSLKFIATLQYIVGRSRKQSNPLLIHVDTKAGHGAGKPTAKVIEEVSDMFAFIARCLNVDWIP
The test is described as follows: PREP IC50 measurement (N-succinyl-Gly-Pro-AMC). The conditions noted are these: for Selectivity index PREP: IC50(PREP)/IC50(FAP); for IC50: N-succinyl-Gly-Pro-AMC 250 μM, pH 7.4. An excerpt:
(§1) Used Enzymes in these Assays: • A gateway-entry clone for human FAP was purchased from Dharmacon (Accession number DQ891423) and the human secretion signal was replaced with the HoneyBee mellitin secretion signal. For transfection and expression of FAP in Sf9 insect cells the C-terminal BaculoDirect kit from LifeTechnologies was used. The enzyme was purified from the supernatant of the insect cells using immobilized Ni-chelating chromatography (GE healthcare, Diegem, Belgium), followed by anion-exchange chromatography using a 1 mL HiTrap Q and size exclusion chromatography using the Superdex 200 column (GE healthcare, Diegem, Belgium). • Human recombinant PREP was expressed in BL21(DE3) cells and purified using immobilized Co-chelating chromatography (GE healthcare), followed by anion-exchange chromatography on a 1 ml Mono Q column (GE healthcare). • DPP4 was purified from human seminal plasma. • Gateway-entry clones for human DPP8 and DPP9 were purchased from Dharmacon (Accession numbers DQ891733 and DQ892325 respectively). For transfection and expression of DPP8 and DPP9 in Sf9 insect cells the N-terminal BaculoDirect kit from LifeTechnologies was used. The enzymes were purified using immobilized Ni-chelating chromatography (GE healthcare, Diegem, Belgium), followed by anion-exchange chromatography using a 1 mL Mono Q (GE healthcare, Diegem, Belgium). • Recombinant human DPP2 was purchased from R&D.
(§2) Eight concentrations of inhibitors/probe were tested. The final DMSO concentration was kept constant during the experiment to exclude any effects. Inhibitors were pre-incubated with the enzyme for 15 minutes at 37° C., afterwards the substrate was added and the velocities of AMC release were measured kinetically at λex=380 nm, λem=465 nm for at least 10 minutes at 37° C. […] Eight concentrations of inhibitors were tested. The final DMSO concentration in kept constant during the experiment to exclude any effects. Inhibitors were pre-incubated with the enzyme for 15 minutes at 37° C., afterwards the substrate was added and the velocities of AMC release were measured kinetically at λex=380 nm, λem=465 nm for at least 10 minutes at 37° C. […] At least eight different inhibitor concentrations were used. The final DMSO concentration is kept constant during the experiment to exclude any effects. Inhibitors were pre-incubated with the enzyme for 15 minutes at 37° C., afterwards the substrate was added and the velocities of pNA release were measured kinetically at 405 nm for at least 10 minutes at 37° C. Measurements were done on the Infinite 200 (Tecan Group Ltd.) and the Magellan software was used to process the data. • For DPP2: Initial velocity measurements were carried out. Lys-Ala-pNA was used as the substrate at a concentration of 1 mM at pH 5.5 (100 mM NaAc, 10 mM EDTA, 14 μg/mL aprotinin). Inhibitors were tested at one concentration, 5 μM, being the final concentration in the well. Inhibitors were pre-incubated with the enzyme for 15 minutes at 37° C., afterwards the substrate was added and the velocities of pNA release were measured kinetically at 405 nm for at least 10 minutes at 37° C. Measurements were done on the Infinite 200 (Tecan Group Ltd.) and the Magellan software was used to process the data.

The target of another test is T2, DPP4 (Homo sapiens, UniProt P27487).
T2 construct: DPP4 was purified from human seminal plasma; from tissue; host or cells: human seminal plasma
T2 sequence (P27487 whole entry): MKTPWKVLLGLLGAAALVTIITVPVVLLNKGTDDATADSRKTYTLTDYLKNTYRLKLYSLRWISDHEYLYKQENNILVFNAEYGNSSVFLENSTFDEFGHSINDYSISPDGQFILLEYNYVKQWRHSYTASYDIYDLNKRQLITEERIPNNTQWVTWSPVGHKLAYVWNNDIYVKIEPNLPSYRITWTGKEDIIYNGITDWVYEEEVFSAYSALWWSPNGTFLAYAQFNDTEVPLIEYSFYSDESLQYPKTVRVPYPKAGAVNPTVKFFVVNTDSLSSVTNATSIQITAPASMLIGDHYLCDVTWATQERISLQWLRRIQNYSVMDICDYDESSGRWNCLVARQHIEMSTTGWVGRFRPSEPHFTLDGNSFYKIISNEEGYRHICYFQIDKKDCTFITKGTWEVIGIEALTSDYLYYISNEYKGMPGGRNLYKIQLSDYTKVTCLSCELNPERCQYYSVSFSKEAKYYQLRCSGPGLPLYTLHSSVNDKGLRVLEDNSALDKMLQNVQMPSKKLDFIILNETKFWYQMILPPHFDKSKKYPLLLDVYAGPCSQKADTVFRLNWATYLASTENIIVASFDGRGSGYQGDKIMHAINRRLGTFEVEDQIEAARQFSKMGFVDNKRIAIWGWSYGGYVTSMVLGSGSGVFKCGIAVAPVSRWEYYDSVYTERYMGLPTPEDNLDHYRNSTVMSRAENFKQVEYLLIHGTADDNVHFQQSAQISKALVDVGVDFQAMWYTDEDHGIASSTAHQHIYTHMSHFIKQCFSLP
The test is described as follows: DPP4 IC50 measurement (Ala-Pro-pNA). The conditions noted are these: for IC50: Ala-Pro-pNA 25 μM, pH 7.4; for Selectivity index DPP4: IC50(DPP4)/IC50(FAP).
Source text: as §1, §2

For another test, the target named is T3, human DPP9 (Homo sapiens, UniProt Q86TI2).
T3 construct: made in house; host or cells: Sf9 insect cells (baculovirus)
T3 sequence (Q86TI2 whole entry): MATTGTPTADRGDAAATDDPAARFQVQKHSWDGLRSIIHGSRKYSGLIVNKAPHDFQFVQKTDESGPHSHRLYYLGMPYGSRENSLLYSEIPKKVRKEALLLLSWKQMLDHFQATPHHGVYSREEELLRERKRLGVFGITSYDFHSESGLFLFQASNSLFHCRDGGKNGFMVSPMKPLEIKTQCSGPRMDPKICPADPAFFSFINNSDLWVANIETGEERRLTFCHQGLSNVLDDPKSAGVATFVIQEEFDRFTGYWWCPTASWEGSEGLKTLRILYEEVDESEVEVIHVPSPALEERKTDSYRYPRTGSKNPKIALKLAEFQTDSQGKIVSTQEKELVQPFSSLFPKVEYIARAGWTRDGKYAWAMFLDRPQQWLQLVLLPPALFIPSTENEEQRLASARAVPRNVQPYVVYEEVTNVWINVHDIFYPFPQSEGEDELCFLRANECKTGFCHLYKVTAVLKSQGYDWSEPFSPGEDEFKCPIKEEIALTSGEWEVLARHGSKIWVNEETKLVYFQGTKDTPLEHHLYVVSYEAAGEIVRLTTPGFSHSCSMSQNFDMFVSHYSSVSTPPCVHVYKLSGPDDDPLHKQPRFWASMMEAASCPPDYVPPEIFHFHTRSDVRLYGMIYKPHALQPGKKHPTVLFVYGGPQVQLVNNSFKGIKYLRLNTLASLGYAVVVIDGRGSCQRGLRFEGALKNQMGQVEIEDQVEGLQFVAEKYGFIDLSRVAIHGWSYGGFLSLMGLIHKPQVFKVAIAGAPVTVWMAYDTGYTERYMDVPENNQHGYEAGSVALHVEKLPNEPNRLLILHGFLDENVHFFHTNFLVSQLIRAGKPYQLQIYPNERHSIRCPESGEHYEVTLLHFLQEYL
The test is described as follows: DPP9 IC50 measurement (Ala-Pro-pNA). The conditions noted are these: for IC50: Ala-Pro-pNA 150 μM, pH 7.4; for Selectivity index DPP9: IC50(DPP9)/IC50(FAP).
Source text: as §1, §2

The target of a further test is T4, human DPP8 (Homo sapiens, UniProt Q6V1X1).
T4 construct: made in house; host or cells: Sf9 insect cells (baculovirus)
T4 sequence (Q6V1X1 whole entry): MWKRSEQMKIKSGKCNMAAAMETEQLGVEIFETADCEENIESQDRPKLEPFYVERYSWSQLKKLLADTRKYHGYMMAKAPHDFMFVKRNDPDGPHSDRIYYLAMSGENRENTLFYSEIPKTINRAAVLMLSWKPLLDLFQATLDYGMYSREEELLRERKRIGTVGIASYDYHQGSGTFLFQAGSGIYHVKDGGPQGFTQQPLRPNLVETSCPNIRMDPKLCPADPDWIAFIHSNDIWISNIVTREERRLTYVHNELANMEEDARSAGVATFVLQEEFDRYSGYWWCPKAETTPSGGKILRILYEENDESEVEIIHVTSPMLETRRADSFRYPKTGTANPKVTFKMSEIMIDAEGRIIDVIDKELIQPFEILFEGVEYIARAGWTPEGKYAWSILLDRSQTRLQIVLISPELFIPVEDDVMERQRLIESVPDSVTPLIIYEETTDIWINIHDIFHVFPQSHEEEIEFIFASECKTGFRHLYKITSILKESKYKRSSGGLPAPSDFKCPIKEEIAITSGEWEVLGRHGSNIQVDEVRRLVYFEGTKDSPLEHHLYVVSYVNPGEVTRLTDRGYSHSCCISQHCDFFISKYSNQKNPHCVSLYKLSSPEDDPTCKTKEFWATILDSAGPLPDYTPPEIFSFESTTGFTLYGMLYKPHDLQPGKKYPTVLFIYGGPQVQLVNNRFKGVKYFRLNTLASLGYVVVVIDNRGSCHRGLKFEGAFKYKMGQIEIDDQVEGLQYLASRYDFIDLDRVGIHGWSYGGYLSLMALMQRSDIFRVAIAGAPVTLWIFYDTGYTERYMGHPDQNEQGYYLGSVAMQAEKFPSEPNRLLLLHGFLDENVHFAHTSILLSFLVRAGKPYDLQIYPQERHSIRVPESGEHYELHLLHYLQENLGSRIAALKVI
The test is described as follows: DPP8 IC50 measurement (Ala-Pro-pNA). The conditions noted are these: for IC50: read-out: DPP8 IC50; for Selectivity index DPP8: IC50(DPP8)/IC50(FAP).
Source text: as §1, §2

The next test addresses T5, human FAP (Homo sapiens, UniProt Q12884).
T5 construct: the human secretion signal was replaced with the HoneyBee mellitin secretion signal; honeybee melittin secretion signal (replaces the native signal) (N); made in house; host or cells: Sf9 insect cells (baculovirus), purified from supernatant
T5 sequence (Q12884 26-760 limits assumed): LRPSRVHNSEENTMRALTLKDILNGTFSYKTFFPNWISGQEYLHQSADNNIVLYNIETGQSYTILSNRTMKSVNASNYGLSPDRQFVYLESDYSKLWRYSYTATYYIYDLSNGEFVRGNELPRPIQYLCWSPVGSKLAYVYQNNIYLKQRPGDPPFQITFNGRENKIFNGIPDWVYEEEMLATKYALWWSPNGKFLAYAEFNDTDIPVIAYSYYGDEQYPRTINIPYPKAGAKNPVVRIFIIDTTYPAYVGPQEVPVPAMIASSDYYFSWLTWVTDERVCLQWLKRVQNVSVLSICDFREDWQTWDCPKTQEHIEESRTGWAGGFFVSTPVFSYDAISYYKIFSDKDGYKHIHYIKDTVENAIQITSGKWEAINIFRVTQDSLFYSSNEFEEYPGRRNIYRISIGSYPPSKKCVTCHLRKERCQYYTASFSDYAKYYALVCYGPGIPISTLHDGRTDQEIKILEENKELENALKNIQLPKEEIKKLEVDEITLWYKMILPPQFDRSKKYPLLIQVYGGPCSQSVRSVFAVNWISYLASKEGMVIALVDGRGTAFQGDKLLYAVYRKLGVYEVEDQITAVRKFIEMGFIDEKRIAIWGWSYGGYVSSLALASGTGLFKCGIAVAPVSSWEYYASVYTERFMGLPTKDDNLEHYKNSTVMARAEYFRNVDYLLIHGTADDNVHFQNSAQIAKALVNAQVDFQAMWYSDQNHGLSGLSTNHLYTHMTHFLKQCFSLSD
The test is described as follows: FAP IC50 measurement (Z-Gly-Pro-AMC). The note with it: Z-Gly-Pro-AMC 50 μM, pH 8, 15 min pre-incubation.
Source text: as §1, §2

Like-named read-outs stand apart in the source and are kept apart here.

What is called IC50 is the concentration needed to halve the response being measured. For `CC(C)(C)OC(=O)N1CC[N+](C)(CCCOc2ccc3nccc(C(=O)NCC(=O)N4CC(F)(F)C[C@H]4C#N)c3c2)CC1` [Compound 11, (S)-4-(tert-butoxycarbonyl)-1-(3-((4-((2-(2-cyano-4,4-difluoropyrrolidin-1-yl)-2-oxoethyl)carbamoyl)quinolin-6-yl)oxy)propyl)-1-methylpiperazin-1-ium iodide], the “Selectivity index PREP” value on Human recombinant PREP was above 22000. Moreover, the IC50 is above 10000 nM on Human recombinant PREP; above 10000 nM against DPP4; 620 ± 80 nM at human DPP9; above 1000 nM at human DPP8 (Ala-Pro-pNA 300 μM, pH 7.4); 0.44 ± 0.05 nM against human FAP. For the same compound, the “Selectivity index DPP4” value on DPP4 is above 22000. Besides, the “Selectivity index DPP9” value on human DPP9 is given as above 2200. The “Selectivity index DPP8” value on human DPP8 is given as above 2200.
`C[N+](C)(C)CCOCCOCCOc1ccc2nccc(C(=O)NCC(=O)N3CC(F)(F)C[C@H]3C#N)c2c1.Cc1ccc(S(=O)(=O)[O-])cc1` [Compound 7, (S)-2-(2-(2-((4-((2-(2-cyano-4,4-difluoropyrrolidin-1-yl)-2-oxoethyl)carbamoyl)quinolin-6-yl)oxy)ethoxy)ethoxy)-N,N,N-trimethylethan-1-aminium 4-methylbenzenesulfonate]: the “Selectivity index PREP” value at Human recombinant PREP is above 36000. The IC50 at Human recombinant PREP was above 10000 nM; on DPP4, above 10000 nM; against human DPP9, above 10000 nM; on human DPP8 (Ala-Pro-pNA 300 μM, pH 7.4) it was above 10000 nM; on human FAP, 0.27 ± 0.02 nM. In addition, the “Selectivity index DPP4” value on DPP4 is on record as above 36000. In addition, the “Selectivity index DPP9” value at human DPP9 is above 36000. The “Selectivity index DPP8” value at human DPP8 is on record as above 36000.
As for `C[N+]1(CCCOc2ccc3nccc(C(=O)NCC(=O)N4CC(F)(F)C[C@H]4C#N)c3c2)CCN(C(=O)c2ccc(B(O)O)cc2)CC1.Cc1ccc(S(=O)(=O)[O-])cc1` [Compound 12, (S)-4-(4-boronobenzoyl)-1-(3-((4-((2-(2-cyano-4,4-difluoropyrrolidin-1-yl)-2-oxoethyl)carbamoyl)quinolin-6-yl)oxy)propyl)-1-methylpiperazin-1-ium 4-methylbenzenesulfonate], the “Selectivity index PREP” value at Human recombinant PREP is recorded as above 17000. Also, the IC50 was above 10000 nM on Human recombinant PREP; above 1000 nM against DPP4; above 1000 nM against human DPP9; above 1000 nM at human DPP8 (Ala-Pro-pNA 300 μM, pH 7.4); 0.57 ± 0.05 nM against human FAP. Further, the “Selectivity index DPP4” value at DPP4 is above 17000. At human DPP9, the “Selectivity index DPP9” value is listed as above 1700. Moreover, on human DPP8, the “Selectivity index DPP8” value was above 1700.
Regarding `C[N+](C)(CF)CCOCCOc1ccc2nccc(C(=O)NCC(=O)N3CC(F)(F)C[C@H]3C#N)c2c1.Cc1ccc(S(=O)(=O)[O-])cc1` [Compound 9, (S)-2-(2-((4-((2-(2-cyano-4,4-difluoropyrrolidin-1-yl)-2-oxoethyl)carbamoyl)quinolin-6-yl)oxy)ethoxy)-N-(fluoromethyl)-N,N-dimethylethan-1-aminium 4-methylbenzenesulfonate], the “Selectivity index PREP” value at Human recombinant PREP is above 10000. For the same compound, the IC50 was 5330 ± 710 nM at Human recombinant PREP and 0.49 ± 0.001 nM on human FAP. Further, the “Selectivity index DPP4” value at DPP4 is listed as above 20000. Moreover, the “Selectivity index DPP9” value at human DPP9 is above 20000. Besides, the “Selectivity index DPP8” value at human DPP8 is recorded as above 20000.
`C[N+](C)(CCF)CCOCCOc1ccc2nccc(C(=O)NCC(=O)N3CC(F)(F)C[C@H]3C#N)c2c1` [Compound 8, (S)-2-(2-((4-((2-(2-cyano-4,4-difluoropyrrolidin-1-yl)-2-oxoethyl)carbamoyl)quinolin-6-yl)oxy)ethoxy)-N-(2-fluoroethyl)-N,N-dimethylethan-1-aminium 4-methylbenzenesulfonate]: the “Selectivity index PREP” value at Human recombinant PREP is listed as above 1300. Also, the IC50 at Human recombinant PREP is above 10000 nM; against DPP4 it was above 10000 nM; against human DPP9, above 10000 nM; on human DPP8 (Ala-Pro-pNA 300 μM, pH 7.4), above 10000 nM; against human FAP it was 9.42 ± 3.44 nM. In addition, at DPP4, the “Selectivity index DPP4” value was above 1300. Also, on human DPP9, the “Selectivity index DPP9” value is given as above 1300. In addition, the “Selectivity index DPP8” value at human DPP8 was above 1300.
On to `C[N+]1(CCCOc2ccc3nccc(C(=O)NCC(=O)N4CC(F)(F)C[C@H]4C#N)c3c2)CCN(C(=O)c2ccc(F)cc2)CC1` [Compound 14, (S)-1-(3-((4-((2-(2-cyano-4,4-difluoropyrrolidin-1-yl)-2-oxoethyl)carbamoyl)quinolin-6-yl)oxy)propyl)-4-(4-fluorobenzoyl)-1-methylpiperazin-1-ium], for which the “Selectivity index PREP” value on Human recombinant PREP was above 10000. The 50% inhibitory concentration (IC50) on Human recombinant PREP is above 10000 nM; against DPP4 it was above 10000 nM; against human DPP9 it was above 1000 nM; at human DPP8 (Ala-Pro-pNA 300 μM, pH 7.4), above 10000 nM; against human FAP, 0.95 ± 0.1 nM. For the same compound, the “Selectivity index DPP4” value at DPP4 was above 10000. Also, on human DPP9, the “Selectivity index DPP9” value is above 1000. The “Selectivity index DPP8” value at human DPP8 is on record as above 10000.
Consider `N#C[C@@H]1CC(F)(F)CN1C(=O)CNC(=O)c1ccnc2ccccc12` [UAMC1110, reference compound], for which, on human DPP8 (heading: DPP8 IC50), the IC50 is above 10000 nM.
